We go through 20 compounds from ChEMBL document CHEMBL3351739, “Design, synthesis and biological evaluation of 6-(nitroimidazole-1H-alkyloxyl)-4-anilinoquinazolines as efficient EGFR inhibitors exerting cytotoxic effects both under normoxia and hypoxia” (Eur J Med Chem, 2015).

A word on the IC50: it is the concentration that inhibits the measured activity by half. The low end stands for greater potency, the high end for weaker potency.

For data set [1], the target named is Epidermal growth factor receptor (Homo sapiens, UniProt P00533). Kind of data set: Inhibition of wild type EGFR (unknown origin) by Z'-Lyte kinase assay.
The subject of data set [2] is HT-29. Kind of data set: Cytotoxicity against human HT-29 cells after 72 hrs under normoxia conditions by SRB assay. The data set is classed as functional, cell-based. Conditions: HT-29, 72 h. For orientation: In SRB staining, fixed cells bind dye roughly in proportion to their protein.
The subject of data set [3] is HT-29. Kind of data set: Cytotoxicity against human HT-29 cells after 72 hrs under hypoxia conditions by SRB assay. The data set is classed as functional, cell-based. Conditions: HT-29, 72 h.
The nature of data set [4]: Reductive drug activation assessed as reactive radical formation at 4.1 umol in pH 7.4 PBS in presence of zinc dust and ammonium chloride by HPLC-Q-ToF-MS method. Conditions: buffer.
Data set [5] can be described thus: Metabolic stability in mouse liver microsomes assessed as compound remaining at 5 uM after 30 mins under normoxia conditions in presence of NADPH by HPLC method. It is filed as ADME. Conditions: read-out: Stability.
Data set [6] in a line: Metabolic stability in mouse liver microsomes assessed as compound remaining at 5 uM after 30 mins under hypoxia conditions in presence of NADPH by HPLC method. The data set is classed as ADME. Conditions: read-out: Stability. (In general: Microsomes from liver hold many membrane-bound enzymes, among them those of drug oxidation.)

Epidermal growth factor receptor, sequence (P00533 whole entry): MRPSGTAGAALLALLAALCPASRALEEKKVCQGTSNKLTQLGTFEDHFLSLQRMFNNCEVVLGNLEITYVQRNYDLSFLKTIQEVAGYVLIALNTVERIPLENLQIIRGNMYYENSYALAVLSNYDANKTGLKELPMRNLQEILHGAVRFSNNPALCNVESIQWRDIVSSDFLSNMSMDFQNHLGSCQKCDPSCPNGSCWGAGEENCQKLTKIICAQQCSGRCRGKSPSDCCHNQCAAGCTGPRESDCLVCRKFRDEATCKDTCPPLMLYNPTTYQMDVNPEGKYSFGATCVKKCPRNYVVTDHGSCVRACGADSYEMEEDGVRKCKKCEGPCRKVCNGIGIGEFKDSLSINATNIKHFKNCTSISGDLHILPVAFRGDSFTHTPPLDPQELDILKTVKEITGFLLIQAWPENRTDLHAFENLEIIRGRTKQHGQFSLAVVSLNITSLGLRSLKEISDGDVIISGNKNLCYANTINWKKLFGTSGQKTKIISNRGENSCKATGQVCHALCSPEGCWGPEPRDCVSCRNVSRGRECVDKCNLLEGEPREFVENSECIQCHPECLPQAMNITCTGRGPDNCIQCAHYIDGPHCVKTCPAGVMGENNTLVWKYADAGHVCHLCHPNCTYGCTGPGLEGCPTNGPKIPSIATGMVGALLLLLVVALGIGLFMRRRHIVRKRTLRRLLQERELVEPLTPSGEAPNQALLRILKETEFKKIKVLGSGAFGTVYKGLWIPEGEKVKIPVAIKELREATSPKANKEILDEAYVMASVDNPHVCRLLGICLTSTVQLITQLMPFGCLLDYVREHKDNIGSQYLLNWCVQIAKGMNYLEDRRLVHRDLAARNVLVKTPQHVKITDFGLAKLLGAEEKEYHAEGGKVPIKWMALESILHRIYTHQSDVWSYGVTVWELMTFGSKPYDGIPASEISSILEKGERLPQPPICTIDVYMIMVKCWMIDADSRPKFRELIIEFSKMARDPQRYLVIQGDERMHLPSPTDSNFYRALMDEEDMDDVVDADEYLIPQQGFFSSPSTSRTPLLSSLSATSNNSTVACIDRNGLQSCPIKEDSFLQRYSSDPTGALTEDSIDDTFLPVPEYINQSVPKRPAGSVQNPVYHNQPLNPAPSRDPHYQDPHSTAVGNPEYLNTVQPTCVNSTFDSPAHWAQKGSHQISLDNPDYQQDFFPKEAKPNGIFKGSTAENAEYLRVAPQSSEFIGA

Turning to `COc1cc2ncnc(Nc3ccc(F)c(Cl)c3)c2cc1OCCn1ccnc1[N+](=O)[O-]`, the IC50 in data set [1] was 3.05 nM; in the data set with HT-29 [2], over 50 µM; in the data set on HT-29 [3], 10 µM.
The corresponding values for `COc1cc2ncnc(Nc3ccc(F)c(Cl)c3)c2cc1OCCCn1ccnc1[N+](=O)[O-]` are 0.89 nM, 8.39 µM and 7.17 µM.
Turning to `COc1cc2ncnc(Nc3ccc(F)c(Cl)c3)c2cc1OCCCCn1ccnc1[N+](=O)[O-]`, the IC50 was found to be 0.47 nM in data set [1], 2.21 µM in the data set with HT-29 [2] and 1.62 µM in the data set on HT-29 [3]. For the same compound, in data set [4], the Drug metabolism result is “metabolite_detected”. The remaining at 0.5 h, 5 µM in data set [5] was 70%; in data set [6], under 10%.
For `COc1cc2ncnc(Nc3ccc(F)c(Cl)c3)c2cc1OCCCCCn1ccnc1[N+](=O)[O-]`, the IC50 in data set [1] stood at 0.51 nM; with HT-29 [2], 17.6 µM; with HT-29 [3] it was 5.59 µM.
As for `COc1cc2ncnc(Nc3ccc(F)c(Cl)c3)c2cc1OCCCCCCn1ccnc1[N+](=O)[O-]`, the IC50 came out at 12.9 µM with HT-29 [2] and 9.81 µM with HT-29 [3].
For the compound `COc1cc2ncnc(Nc3cccc(Br)c3)c2cc1OCCCn1ccnc1[N+](=O)[O-]`, the results for the half-maximal inhibitory concentration (IC50) (in data set [1]; in the data set on HT-29 [2]; with HT-29 [3]) were 0.66 nM, 4.48 µM and 4.01 µM, respectively.
As to `C#Cc1cccc(Nc2ncnc3cc(OC)c(OCCCn4ccnc4[N+](=O)[O-])cc23)c1`, the IC50 in data set [1] turned out to be 1.08 nM; with HT-29 [2], 5.55 µM; in the data set with HT-29 [3] it was 5.53 µM.
In the case of `C#Cc1cccc(Nc2ncnc3cc(OC)c(OCCCCn4ccnc4[N+](=O)[O-])cc23)c1`, the figures for the IC50 (in data set [1]; with HT-29 [2]; in the data set with HT-29 [3]) were 0.56 nM, 10.1 µM and 6.9 µM, respectively.
`C#Cc1cccc(Nc2ncnc3cc(OC)c(OCCCCCn4ccnc4[N+](=O)[O-])cc23)c1`: the half-maximal inhibitory concentration (IC50) in data set [1] was found to be 0.49 nM; with HT-29 [2], 3.55 µM; with HT-29 [3] it was 3.05 µM.
The like results for `C#Cc1cccc(Nc2ncnc3cc(OC)c(OCCCCCCn4ccnc4[N+](=O)[O-])cc23)c1` were, in that order, 0.5 nM, 2.93 µM and 3.46 µM.
The corresponding values for `COc1cc2ncnc(Nc3ccc(OCc4cccc(F)c4)c(Cl)c3)c2cc1OCCCn1ccnc1[N+](=O)[O-]` are 38.3 nM, 15.5 µM and 20 µM.
The like results for `COc1cc2ncnc(Nc3ccc(OCc4cccc(F)c4)c(Cl)c3)c2cc1OCCCCn1ccnc1[N+](=O)[O-]` were, in that order, 28.5 nM, 1.87 µM and 2.07 µM.
On to `COc1cc2ncnc(Nc3ccc(OCc4cccc(F)c4)c(Cl)c3)c2cc1OCCCCCn1ccnc1[N+](=O)[O-]`, for which the IC50 in data set [1] was 51.2 nM; with HT-29 [2] it was 3.09 µM; with HT-29 [3], 1.36 µM.
In the case of `COc1cc2ncnc(Nc3ccc(OCc4cccc(F)c4)c(Cl)c3)c2cc1OCCCCCCn1ccnc1[N+](=O)[O-]`, the concentration for half-maximal inhibition (IC50) in data set [1] was 15.1 nM; in the data set with HT-29 [2], over 50 µM; in the data set with HT-29 [3], 24.3 µM.
Consider `COc1cc2ncnc(Nc3ccc(F)c(Cl)c3)c2cc1OCCn1c([N+](=O)[O-])cnc1C`, for which the 50% inhibitory concentration (IC50) in data set [1] was 4.9 nM; in the data set with HT-29 [2] it was over 50 µM; with HT-29 [3] it was over 50 µM.
In the case of `COc1cc2ncnc(Nc3ccc(F)c(Cl)c3)c2cc1OCCCn1c([N+](=O)[O-])cnc1C`, the IC50 in data set [1] is 3.43 nM; with HT-29 [2], 23.2 µM; in the data set with HT-29 [3] it was 11.5 µM.
Consider `COc1cc2ncnc(Nc3ccc(F)c(Cl)c3)c2cc1OCCCCn1c([N+](=O)[O-])cnc1C`, for which the results for the IC50 (in data set [1]; in the data set on HT-29 [2]; in the data set on HT-29 [3]) were 0.53 nM, 8.21 µM and 9.98 µM, respectively.
Regarding `COc1cc2ncnc(Nc3cccc(Br)c3)c2cc1OCCCn1c([N+](=O)[O-])cnc1C`, the half-inhibitory concentration (IC50) in data set [1] was 1.18 nM; in the data set on HT-29 [2] it was 15.7 µM; in the data set with HT-29 [3], 5.41 µM.
Take `COc1cc2ncnc(Nc3ccc(F)c(Cl)c3)c2cc1OCCCN1CCOCC1` [GEFITINIB]: the remaining at 0.5 h, 5 µM in data set [5] and in data set [6] was over 90% in each case.
As for `Nc1n[n+]([O-])c2ccccc2[n+]1[O-]` [TIRAPAZAMINE], the IC50 in the data set with HT-29 [2] was over 50 µM; with HT-29 [3], 9.45 µM.
